The target of data set [1] is CDK9/cyclin T1 (Homo sapiens) (UniProt O60563+P50750). Put plainly: Inhibition of CDK9/CyclinT1 (unknown origin) at 100 nM by ADP-Glo assay relative to control. In kind it is protein-complex assay. (In ADP-Glo the light output rises with the ADP produced.)
In data set [2] the target is CDK2/Cyclin A2 (Homo sapiens) (UniProt P24941+P20248). In words: Inhibition of CDK2/CyclinA2 (unknown origin) at 100 nM by ADP-Glo assay relative to control. In kind it is protein-complex assay.
Data set [3] concerns MV4-11. Put plainly: Antiproliferative activity against human MV4-11 cells assessed as reduction in cell viability measured after 72 hrs. In kind it is functional, cell-based. To be noted: MV4-11, 72 h.
Data set [4] is described as follows: Metabolic stability of the compound in mouse liver microsomes at 10 uM measured for 60 mins in presence of NADPH by LC-MS/MS analysis. Format: ADME, Microsome. Particulars: 1 h.
The nature of data set [5]: Toxicity in BALB/c mouse xenografted with human MV4-11 cells assessed as effect on body weight at 10 to 20 mg/kg, iv qd. In kind it is organism-based. To be noted: in vivo, dose 10-20 mg/kg.
Another data set addresses CDK7/Cyclin H/MNAT1 (Homo sapiens, UniProt P50613). In words: Inhibition of CDK7/Cyclin H/MAT1 (unknown origin) by ADP-Glo assay. Format: protein-complex assay.
The next data set has as its system THP-1. In words: Antiproliferative activity against human THP-1 cells assessed as reduction in cell viability measured after 72 hrs. In kind it is functional, cell-based. To be noted: THP-1, 72 h.
For another data set, the system named is HCT-116. Put plainly: Antiproliferative activity against human HCT-116 cells assessed as reduction in cell viability measured after 72 hrs. Particulars: HCT-116, 72 h. In kind it is functional, cell-based.
Data set [6] is described as follows: Metabolic stability of the compound in rat plasma at 10 uM measured for 60 mins by LC-MS/MS analysis. In kind it is ADME, cell-free. Particulars: 1 h.
Data set [7] has as its target Cyclin-dependent kinase 4/cyclin D1 (Homo sapiens, UniProt P11802). In words: Inhibition of CDK4/CyclinD1 (unknown origin) by ADP-Glo assay. In kind it is protein-complex assay.
Data set [8] relates to MV4-11. Put plainly: Antitumor activity against human MV4-11 cells xenografted in BALB/c mouse assessed as inhibition of tumor growth at 20 mg/kg, iv qd and measured every 2 days. In kind it is functional. Particulars: MV4-11, 48 h, read-out: TGI.
The next data set concerns HepG2. Put plainly: Antiproliferative activity against human HepG2 cells assessed as reduction in cell viability measured after 72 hrs. Format: functional, cell-based. To be noted: HepG2, 72 h.
For a further data set, the system named is A549. Put plainly: Antiproliferative activity against human A549 cells assessed as reduction in cell viability measured after 72 hrs. Format: functional, cell-based. Particulars: A549, 72 h.
Data set [9] in a line: Solubility of the compound in water at pH 7.4. In kind it is physicochemical.
Data set [10] deals with MV4-11. In words: Antitumor activity against human MV4-11 cells xenografted in BALB/c mouse assessed as inhibition of tumor growth at 10 mg/kg, iv qd and measured every 2 days. In kind it is functional. To be noted: MV4-11, 48 h, read-out: TGI. Background: Xenograft models place foreign cells or tissue in a host animal.
Another data set addresses CDK6/cyclin D1 (Homo sapiens, UniProt Q00534). In words: Inhibition of CDK6/CyclinD1 (unknown origin) by ADP-Glo assay. In kind it is protein-complex assay.
The subject of another data set is MCF7. Put plainly: Antiproliferative activity against human MCF7 cells assessed as reduction in cell viability measured after 72 hrs. In kind it is functional, cell-based. Particulars: MCF7, 72 h.
Data set [11] in a line: Toxicity in BALB/c mouse xenografted with human MV4-11 cells assessed as animal's mortality at 10 to 20 mg/kg, iv qd. In kind it is organism-based. Particulars: in vivo, dose 10-20 mg/kg.
Another data set relates to HT-29. Put plainly: Antiproliferative activity against human HT-29 cells assessed as reduction in cell viability measured after 72 hrs. In kind it is functional, cell-based. Particulars: HT-29, 72 h.
Data set [12] in a line: Cytotoxicity against human L02 cells assessed as reduction in cell viability measured after 72 hrs. In kind it is toxicity, cell-based.
For the next data set, the system named is HL-60. In words: Antiproliferative activity against human HL-60 cells assessed as reduction in cell viability measured after 72 hrs. In kind it is functional, cell-based. Particulars: HL-60, 72 h.
In another data set the test system is SW480. In words: Antiproliferative activity against human SW480 cells assessed as reduction in cell viability measured after 72 hrs. Format: functional, cell-based. To be noted: SW480, 72 h.
Data set [13] in a line: Cytotoxicity against human HEK293 cells assessed as reduction in cell viability measured after 72 hrs. Format: toxicity, cell-based.
Data set [14] can be described thus: Inhibition of CDK1/CyclinA2 (unknown origin) by ADP-Glo assay. On the set-up: species or system Homo sapiens.
The test system of another data set is BT-549. Put plainly: Antiproliferative activity against human BT-549 cells assessed as reduction in cell viability measured after 72 hrs. Format: functional, cell-based. To be noted: BT-549, 72 h.
A further data set deals with MOLM-13. Put plainly: Antiproliferative activity against human MOLM-13 cells assessed as reduction in cell viability measured after 72 hrs. Format: functional, cell-based. Particulars: MOLM-13, 72 h.
Data set [15] can be described thus: Metabolic stability of the compound in rat liver microsomes at 10 uM measured for 60 mins in presence of NADPH by LC-MS/MS analysis. Format: ADME, Microsome. To be noted: 1 h.

18 compounds from ChEMBL document CHEMBL5634084, “Design and optimization of selective and potent CDK9 inhibitors with flavonoid scaffold for the treatment of acute myeloid leukemia” (Eur J Med Chem, 2023) can be followed below.

The term inhibition denotes the change of the read-out against control, counted positive when it falls. The IC50 is the concentration that gives 50% inhibition. One may read the solubility as the concentration that dissolves in the medium under given conditions.

In brackets after ≈: the same amount, converted by molar mass. Activity calls are given as the source filed them. The calls are words filed in the database; no cut-off is given here.

CDK7/Cyclin H/MNAT1, sequence (P51946 whole entry): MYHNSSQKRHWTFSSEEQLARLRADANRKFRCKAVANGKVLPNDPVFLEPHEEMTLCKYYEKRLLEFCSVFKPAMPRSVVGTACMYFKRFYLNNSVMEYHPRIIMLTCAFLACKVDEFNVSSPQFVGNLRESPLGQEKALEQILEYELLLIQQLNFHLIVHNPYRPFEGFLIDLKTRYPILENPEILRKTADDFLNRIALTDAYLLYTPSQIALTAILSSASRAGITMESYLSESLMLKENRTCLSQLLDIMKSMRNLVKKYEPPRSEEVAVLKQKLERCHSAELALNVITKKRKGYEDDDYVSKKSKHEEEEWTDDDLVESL
CDK7/Cyclin H/MNAT1, sequence (P50613 whole entry): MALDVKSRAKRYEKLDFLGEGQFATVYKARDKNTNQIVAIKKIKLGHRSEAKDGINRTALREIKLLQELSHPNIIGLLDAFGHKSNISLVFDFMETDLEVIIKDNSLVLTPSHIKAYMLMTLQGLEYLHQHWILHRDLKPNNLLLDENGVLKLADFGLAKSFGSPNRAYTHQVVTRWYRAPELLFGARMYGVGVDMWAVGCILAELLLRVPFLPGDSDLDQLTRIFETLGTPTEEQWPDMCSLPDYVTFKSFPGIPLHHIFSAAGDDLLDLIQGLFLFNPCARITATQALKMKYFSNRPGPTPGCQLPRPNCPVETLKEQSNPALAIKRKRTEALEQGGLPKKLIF
CDK7/Cyclin H/MNAT1, sequence (P51948 whole entry, further chain): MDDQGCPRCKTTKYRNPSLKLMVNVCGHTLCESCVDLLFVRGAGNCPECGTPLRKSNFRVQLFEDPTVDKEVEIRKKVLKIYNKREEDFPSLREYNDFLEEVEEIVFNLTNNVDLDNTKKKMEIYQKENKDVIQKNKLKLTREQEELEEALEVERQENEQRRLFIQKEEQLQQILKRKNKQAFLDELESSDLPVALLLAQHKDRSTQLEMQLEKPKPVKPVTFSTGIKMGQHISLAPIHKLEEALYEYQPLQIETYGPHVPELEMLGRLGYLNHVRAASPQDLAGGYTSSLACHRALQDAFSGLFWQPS
Cyclin-dependent kinase 4/cyclin D1, sequence (P11802 whole entry): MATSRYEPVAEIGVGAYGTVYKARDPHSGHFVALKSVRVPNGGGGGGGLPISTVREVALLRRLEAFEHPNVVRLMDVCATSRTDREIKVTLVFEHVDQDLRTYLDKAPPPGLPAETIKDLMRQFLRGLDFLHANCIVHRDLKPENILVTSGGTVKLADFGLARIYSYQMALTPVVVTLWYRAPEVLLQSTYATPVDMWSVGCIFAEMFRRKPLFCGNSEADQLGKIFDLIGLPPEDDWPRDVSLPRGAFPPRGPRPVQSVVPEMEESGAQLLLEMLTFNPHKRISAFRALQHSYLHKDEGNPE
Cyclin-dependent kinase 4/cyclin D1, sequence (P24385 whole entry, further chain): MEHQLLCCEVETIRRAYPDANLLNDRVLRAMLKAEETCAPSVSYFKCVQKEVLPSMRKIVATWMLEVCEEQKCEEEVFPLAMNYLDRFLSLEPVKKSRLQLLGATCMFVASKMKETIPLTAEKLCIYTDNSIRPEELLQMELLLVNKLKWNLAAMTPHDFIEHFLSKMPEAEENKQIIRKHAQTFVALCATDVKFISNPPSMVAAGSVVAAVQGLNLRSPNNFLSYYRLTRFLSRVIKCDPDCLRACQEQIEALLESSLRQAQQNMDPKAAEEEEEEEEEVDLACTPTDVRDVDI
CDK6/cyclin D1, sequence (P24385 whole entry): as the sequence (P24385 whole entry, further chain) above
CDK6/cyclin D1, sequence (Q00534 whole entry): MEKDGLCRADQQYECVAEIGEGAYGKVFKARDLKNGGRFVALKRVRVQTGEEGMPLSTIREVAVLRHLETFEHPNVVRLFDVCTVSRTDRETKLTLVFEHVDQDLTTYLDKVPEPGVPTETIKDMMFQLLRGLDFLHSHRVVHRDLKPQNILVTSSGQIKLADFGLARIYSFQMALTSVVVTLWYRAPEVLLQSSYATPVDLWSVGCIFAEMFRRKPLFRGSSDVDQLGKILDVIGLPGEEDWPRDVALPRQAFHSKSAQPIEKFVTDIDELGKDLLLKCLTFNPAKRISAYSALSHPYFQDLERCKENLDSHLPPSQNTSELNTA

On to `COc1cc(O)c2c(=O)cc(-c3ccc(N4CCNCC4)cc3)oc2c1C1=CCN(C)CC1`, for which the inhibition in [1] worked out at 98.6%. Further, in data set [2], the inhibition result is “inactive”. In addition, the IC50 in the data set on MV4-11 [3] was determined as 0.13 µM.

With `COc1cc(O)c2c(=O)cc(-c3ccc(N4CCN(C)CC4)cc3)oc2c1N1CCC(N2CCOCC2)CC1`, the values for the inhibition in data set [1] and in [2] were 70% and 24.5%, respectively. Moreover, in the data set on MV4-11 [3], the 50% inhibitory concentration (IC50) amounted to 0.21 µM.

Take `COc1cc(O)c2c(=O)cc(-c3ccc(N4CCCC4)cc3)oc2c1N1CCNCC1`: the values for the inhibition in data set [1] and in data set [2] were 79.6% and 4.7%, respectively. In the data set with MV4-11 [3], the IC50 came out at 0.17 µM.

The compound `COc1cc(O)c2c(=O)cc(-c3ccc(N4CCN(C)CC4)cc3)oc2c1N1CCOCC1` had an inhibition in data set [1] of 44.4%. For the same compound, the inhibition result in data set [2] is “inactive”. In the data set on MV4-11 [3], the IC50 is 0.11 µM.

In data set [1], `COc1cc(O)c2c(=O)cc(-c3ccc(N4CCN(C)CC4)cc3)oc2c1` came in with an inhibition of 5.1%. Moreover, the inhibition result in data set [2] is “inactive”. Further, the 50% inhibitory concentration (IC50) in the data set on MV4-11 [3] amounted to 2.02 µM.

For the compound `COc1cc(O)c2c(=O)cc(-c3ccc(N4CCC(N5CCOCC5)CC4)cc3)oc2c1N1CCNCC1`, the inhibition was determined as 78% in data set [1] and 4.7% in data set [2]. Further, the IC50 in the data set on MV4-11 [3] worked out at 0.31 µM.

Compound `COc1cc(O)c2c(=O)cc(-c3ccc(N4CCN(C)CC4)cc3)oc2c1N1CCCC1` gave an inhibition in data set [1] of 17.6%. The inhibition result in [2] is “inactive”. In the data set with MV4-11 [3], the IC50 is 0.07 µM.

With `COc1cc(O)c2c(=O)cc(-c3ccc(N4CCC(N5CCOCC5)CC4)cc3)oc2c1C1=CCN(C)CC1`, the inhibition in data set [1] was 90.9%; in data set [2] it was 29%. Moreover, the IC50 in the data set on MV4-11 [3] is 0.33 µM.

For the compound `COc1cc(O)c2c(=O)cc(-c3ccc(N4CCNCC4)cc3)oc2c1N1CCNCC1`, in [1], the inhibition amounted to 70.8%. The inhibition result in data set [2] is “inactive”. Besides, in the data set with MV4-11 [3], the IC50 was found to be 0.1 µM.

As for `COc1cc(O)c2c(=O)cc(-c3ccc(N4CCN(C)CC4)cc3)oc2c1N1CCN(C)CC1`, the inhibition came to 75.8% in [1] and 23.5% in data set [2]. Further, in the data set on MV4-11 [3], the IC50 turned out to be 0.1 µM.

Regarding `COc1cc(O)c2c(=O)cc(-c3ccc(N4CCN(C)CC4)cc3)oc2c1N1CCCCC1`, the inhibition in [1] was 47.5%. Moreover, the inhibition entry in data set [2] is “inactive”. Further, in the data set with MV4-11 [3], the IC50 was 1.23 µM.

Turning to `COc1cc(O)c2c(=O)cc(-c3ccc(N4CCN(C)CC4)cc3)oc2c1Oc1c(C)n[nH]c1C`, the inhibition in [1] worked out at 75.8%; in data set [2], 14.2%. For the same compound, the IC50 in the data set on MV4-11 [3] stood at 2.02 µM.

Turning to `COc1cc(O)c2c(=O)cc(-c3ccc(N4CCCNCC4)cc3)oc2c1C1=CCN(C)CC1`, the inhibition in data set [1] was 99%; in [2], 32.5%. In addition, the IC50 in the data set with MV4-11 [3] was 0.15 µM.

For `COc1cc(O)c2c(=O)cc(-c3ccc(N4CCN(C)CC4)cc3)oc2c1[C@H]1CCN(C)[C@@H]1CO`, the inhibition in [1] amounted to 1.4%. In [2], the inhibition result was “inactive”. The half-maximal inhibitory concentration (IC50) in the data set on MV4-11 [3] came out at 0.07 µM.

For the compound `COc1cc(O)c2c(=O)cc(-c3ccc(N4CCN(C)CC4)cc3)oc2c1N1CCNCC1`, the Stability entry in data set [4], in data set [6] and in data set [15] was “Stable” throughout. The Activity result in [5] and in data set [11] was “Non-Toxic” throughout. Moreover, the concentration for half-maximal inhibition (IC50) against CDK7/Cyclin H/MNAT1 came to 4.52 µM; in the data set with THP-1 it was 4.26 µM; in the data set on HCT-116 it was 0.69 µM; in [7], 0.311 µM; in the data set with HepG2, 1.77 µM; in the data set on A549 it was 1.15 µM. For the same compound, the IC50 in the data set on MV4-11 [3] turned out to be 0.08 µM; against CDK6/cyclin D1, 2.22 µM; in the data set on MCF7, 1.5 µM; in the data set with HT-29 it was 0.88 µM; in the data set on HL-60, 0.12 µM; in the data set on SW480, 0.99 µM. Also, the IC50 in data set [14] was determined as 1.78 µM; in the data set on BT-549 it was 1.85 µM; with MOLM-13, 1.11 µM. Also, the values for the inhibition in data set [1] and in [2] were 75% and 8.3%, respectively. Further, the inhibition in vivo at 20 mg/kg in the data set with MV4-11 [8] came to 61%. The amount in solution in [9] (solubility) came to 450 µg/mL (≈ 999 µM). The inhibition in vivo at 10 mg/kg in the data set on MV4-11 [10] turned out to be 48%. In addition, the values for the IC50 at 72 h in data set [12] and in [13] were 17.7 µM and 25.5 µM, respectively.

As for `COc1cc(O)c2c(=O)cc(-c3ccc(N4CCOCC4)cc3)oc2c1N1CCNCC1`, the values for the inhibition in data set [1] and in [2] were 74.4% and 17.5%, respectively. For the same compound, the IC50 with MV4-11 [3] amounted to 0.17 µM.

Take `COc1cc(O)c2c(=O)cc(-c3ccc(N4CCCNCC4)cc3)oc2c1N1CCNCC1`: the inhibition was 78% in data set [1] and 18.9% in [2]. For the same compound, the IC50 in the data set on MV4-11 [3] was 0.21 µM.

Consider `COc1cc(O)c2c(=O)cc(-c3ccc(N4CCN(C)CC4)cc3)oc2c1[C@H]1CCN(C)C[C@H]1O`, for which the results for the inhibition in data set [1] and in data set [2] were 64.9% and 5.4%, respectively. Also, the IC50 in the data set on MV4-11 [3] is 0.18 µM.
